Assay results from patent US9505753B2, “Inhibitors of D-amino acid oxidase” (THE JOHNS HOPKINS UNIVERSITY, priority 2012, dated 2016).
Where two headings read alike, the source gives them in different places.

Target: human recombinant D-amino acid oxidase (Homo sapiens (Human), UniProt P14920)
Assay: In vitro D-amino acid oxidase (DAAO) assay, 96-well plate
Assay type: biochemical
Settings: read-out: Inhibition of DAAO IC50
Procedure: A reliable 96-well plate D-amino acid oxidase (DAAO) assay was developed based on previously published reports (J. Biol. Chem. 277: 27782 (2002)). […] All reactions were carried out for 20 min at room temperature in a 100-μL volume in Tris buffer (50 mM, pH 8.5). Additionally, stock solutions and serial dilutions of potential DAO inhibitors were made in 10:90 DMSO:buffer with a final assay DMSO concentration of 1%.

[1] = human recombinant DAAO, D-serine 5 mM, FAD 1 μM, 20 min, room temperature, Tris buffer pH 8.5

Sequence of human recombinant D-amino acid oxidase (P14920 whole entry): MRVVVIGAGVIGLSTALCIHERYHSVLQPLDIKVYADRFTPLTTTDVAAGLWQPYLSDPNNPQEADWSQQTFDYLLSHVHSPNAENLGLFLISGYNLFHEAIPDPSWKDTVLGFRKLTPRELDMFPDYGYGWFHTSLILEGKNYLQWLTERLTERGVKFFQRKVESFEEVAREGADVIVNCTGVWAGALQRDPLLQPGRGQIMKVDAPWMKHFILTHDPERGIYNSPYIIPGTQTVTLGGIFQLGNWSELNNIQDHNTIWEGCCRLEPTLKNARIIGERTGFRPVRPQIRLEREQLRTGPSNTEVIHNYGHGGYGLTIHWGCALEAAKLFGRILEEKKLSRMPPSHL

SMILES	IC50 [1]	IC50
O=c1[nH]c(=O)n(CCc2cccc(Cl)c2)nc1O [Compound 5f, 2-(3-Chlorophenethyl)-6-hydroxy-1,2,4-triazine-3,5(2H,4H)-dione]	60 nM	–
O=c1[nH]c(=O)n(CCc2ccc(Cl)c(Cl)c2)nc1O [Compound 5y, 2-(3,4-Dichlorophenethyl)-6-hydroxy-1,2,4-triazine-3,5(2H,4H)-dione]	30 nM	–
O=c1[nH]c(=O)n(CCc2ccc(F)cc2)nc1O [Compound 5b, 2-(4-Fluorophenethyl)-6-hydroxy-1,2,4-triazine-3,5(2H,4H)-dione]	60 nM	–
O=c1[nH]c(=O)n(CCc2ccc(Cl)cc2Cl)nc1O [Compound 5m, 2-(2,4-Dichlorophenethyl)-6-hydroxy-1,2,4-triazine-3,5(2H,4H)-dione]	80 nM	–
O=c1[nH]c(=O)n(Cc2cccc3ccccc23)nc1O [Compound 5u, 6-Hydroxy-2-(naphthalen-1-ylmethyl)-1,2,4-triazine-3,5(2H,4H)-dione]	50 nM	–
O=c1[nH]c(=O)n(CCCc2ccccc2)nc1O [Compound 5s, 6-Hydroxy-2-(3-phenylpropyl)-1,2,4-triazine-3,5(2H,4H)-dione]	2000 nM	–
O=c1[nH]c(=O)n(CCc2ccc(-c3ccccc3)cc2)nc1O [Compound 5o, 2-(2-(Biphenyl-4-yl)ethyl)-6-hydroxy-1,2,4-triazine-3,5(2H,4H)-dione]	30 nM	–
CC(C)(C)CCn1nc(O)c(=O)[nH]c1=O [Compound 5r, 2-(3,3-Dimethylbutyl)-6-hydroxy-1,2,4-triazine-3,5(2H,4H)-dione]	40000 nM	–
Cc1ccccc1CCn1nc(O)c(=O)[nH]c1=O [Compound 5j, 6-Hydroxy-2-(2-methylphenethyl)-1,2,4-triazine-3,5(2H,4H)-dione]	60 nM	–
O=c1[nH]c(=O)n(CCc2ccc(C(F)(F)F)cc2)nc1O [Compound 5k, 6-Hydroxy-2-(4-(trifluoromethyl)phenethyl)-1,2,4-triazine-3,5(2H,4H)-dione]	80 nM	–
O=c1[nH]c(=O)n(CCc2ccccc2)nc1O [Compound 5a, 6-Hydroxy-2-phenethyl-1,2,4-triazine-3,5(2H,4H)-dione]	80 nM	–
O=c1[nH]c(=O)n(CCc2cccc(Oc3ccccc3)c2)nc1O [Compound 5ad, 6-Hydroxy-2-(3-phenoxyphenethyl)-1,2,4-triazine-3,5(2H,4H)-dione]	300 nM	–
O=c1[nH]c(=O)n(CCc2cccc(C(F)(F)F)c2)nc1O [Compound 5l, 6-Hydroxy-2-(3-(trifluoromethyl)phenethyl)-1,2,4-triazine-3,5(2H,4H)-dione]	90 nM	–
O=c1[nH]c(=O)n(CC(O)c2ccccc2)nc1O (stereo not drawn) [Compound 21, 6-Hydroxy-2-(2-hydroxy-2-phenylethyl)-1,2,4-triazine-3,5(2H,4H)-dione]	1000 nM	–
Cc1cccc(CCn2nc(O)c(=O)[nH]c2=O)c1 [Compound 5i, 6-Hydroxy-2-(3-methylphenethyl)-1,2,4-triazine-3,5(2H,4H)-dione]	60 nM	–
COc1ccc(CCn2nc(O)c(=O)[nH]c2=O)cc1 [Compound 5x, 6-Hydroxy-2-(4-methoxyphenethyl)-1,2,4-triazine-3,5(2H,4H)-dione]	–	100 nM
O=c1[nH]c(=O)n(CCc2ccc(F)c(Cl)c2)nc1O [Compound 5z, 2-(3-Chloro-4-fluorophenethyl)-6-hydroxy-1,2,4-triazine-3,5(2H,4H)-dione]	60 nM	–
COc1cccc(CCn2nc(O)c(=O)[nH]c2=O)c1 [Compound 5w, 6-Hydroxy-2-(3-methoxyphenethyl)-1,2,4-triazine-3,5(2H,4H)-dione]	100 nM	–
O=c1[nH]c(=O)n(CCc2cccc(F)c2)nc1O [Compound 5c, 2-(3-Fluorophenethyl)-6-hydroxy-1,2,4-triazine-3,5(2H,4H)-dione]	60 nM	–
O=c1[nH]c(=O)n(CCc2ccccc2Cl)nc1O [Compound 5g, 2-(2-Chlorophenethyl)-6-hydroxy-1,2,4-triazine-3,5(2H,4H)-dione]	100 nM	–
O=c1[nH]c(=O)n(Cc2ccc(Oc3ccccc3F)cc2)nc1O [Compound 5ae, 2-(4-(2-Fluorophenoxyl)benzyl)-6-hydroxy-1,2,4-triazine-3,5(2H,4H)-dione]	300 nM	–
O=c1[nH]c(=O)n(Cc2ccc(-c3ccccc3)cc2)nc1O [Compound 5af, 2-(Biphenyl-4-ylmethyl)-6-hydroxy-1,2,4-triazine-3,5(2H,4H)-dione]	300 nM	–
Cn1nc(O)c(=O)[nH]c1=O [Compound 5p, 6-Hydroxy-2-methyl-1,2,4-triazine-3,5(2H,4H)-dione]	3000 nM	–
Cc1ccc(CCn2nc(O)c(=O)[nH]c2=O)cc1 [Compound 5h, 6-Hydroxy-2-(4-methylphenethyl)-1,2,4-triazine-3,5(2H,4H)-dione]	100 nM	–
O=c1[nH]c(=O)n(CCc2ccccc2O)nc1O [Compound 5vp, 6-Hydroxy-2-(2-hydroxyphenethyl)-1,2,4-triazine-3,5(2H,4H)-dione]	60 nM	–
O=c1[nH]c(=S)n(CCc2ccccc2)nc1O [Compound 16, 6-Hydroxy-2-phenethyl-3-thioxo-3,4-dihydro-1,2,4-triazin-5(2H)-one]	50 nM	–
CC(C)CCn1nc(O)c(=O)[nH]c1=O [Compound 5q, 6-Hydroxy-2-isopentyl-1,2,4-triazine-3,5(2H,4H)-dione]	300 nM	–
O=c1[nH]c(=O)n(CCc2ccc(-c3ccccc3F)cc2)nc1O [Compound 30, 2-(2-(2′-Fluorobiphenyl-4-yl)ethyl)-6-hydroxy-1,2,4-triazine-3,5(2H,4H)-dione]	80 nM	–

Now from value to compound:

IC50 [1]	IC50	SMILES
200 nM	–	O=c1[nH]c(=O)n(Cc2ccc(F)c3ccccc23)nc1O [Compound 25b, 2-((4-Fluoronaphthalen-1-yl)methyl)-6-hydroxy-1,2,4-triazine-3,5(2H,4H)-dione]
700 nM	–	O=c1[nH]c(=O)n(CCN2CCc3ccccc3C2)nc1O [Compound 12d, 2-(2-(3,4-Dihydroisoquinolin-2(1H)-yl)ethyl)-6-hydroxy-1,2,4-triazine-3,5(2H,4H)-dione]
1000 nM	–	Cc1ccc(Cn2nc(O)c(=O)[nH]c2=O)c2ccccc12 [Compound 25c, 6-Hydroxy-2-((4-methylnaphthalen-1-yl)methyl)-1,2,4-triazine-3,5(2H,4H)-dione]
900 nM	–	O=c1[nH]c(=O)n(CCc2ccccn2)nc1O [Compound 10l, 6-Hydroxy-2-(2-(pyridin-2-yl)ethyl)-1,2,4-triazine-3,5(2H,4H)-dione]
40 nM	–	O=c1[nH]c(=O)n(CCc2ccc(F)c(F)c2)nc1O [Compound 10b, 2-(3,4-Difluorophenethyl)-6-hydroxy-1,2,4-triazine-3,5(2H,4H)-dione]
100 nM	–	O=c1[nH]c(=O)n(CCn2ccc3ccccc32)nc1O [Compound 10e, 2-(2-(1H-indol-1-yl)ethyl)-6-hydroxy-1,2,4-triazine-3,5(2H,4H)-dione]
300 nM	–	CC(Cc1ccccc1)n1nc(O)c(=O)[nH]c1=O (stereo not drawn) [Compound 10k, 6-Hydroxy-2-(1-phenylpropan-2-yl)-1,2,4-triazine-3,5(2H,4H)-dione]
9000 nM	–	CC(C)N1CCN(CCn2nc(O)c(=O)[nH]c2=O)CC1 [Compound 12b, 6-Hydroxy-2-(2-(4-isopropylpiperazin-1-yl)ethyl)-1,2,4-triazine-3,5(2H,4H)-dione]
300 nM	–	O=c1[nH]c(=O)n(CCn2cnc3ccccc32)nc1O [Compound 10f, 2-(2-(1H-benzo[d]imidazol-1-yl)ethyl)-6-hydroxy-1,2,4-triazine-3,5(2H,4H)-dione]
300 nM	–	O=c1[nH]c(=O)n(Cc2cccc3cnccc23)nc1O [Compound 10p, 6-Hydroxy-2-(isoquinolin-5-ylmethyl)-1,2,4-triazine-3,5(2H,4H)-dione]
7000 nM	–	O=c1[nH]c(=O)n(CCn2c3ccccc3c3ccccc32)nc1O [Compound 10i, 2-(2-(9H-carbazol-9-yl)ethyl)-6-hydroxy-1,2,4-triazine-3,5(2H,4H)-dione]
300 nM	–	O=c1[nH]c(=O)n(CCn2ccc3cccnc32)nc1O [Compound 10g, 2-(2-(1H-pyrrolo[2,3-b]pyridin-1-yl)ethyl)-6-hydroxy-1,2,4-triazine-3,5(2H,4H)-dione]
80 nM	–	O=c1[nH]c(=O)n(Cc2cccc3c(F)cccc23)nc1O [Compound 10s, 2-((5-Fluoronaphthalen-1-yl)methyl)-6-hydroxy-1,2,4-triazine-3,5(2H,4H)-dione]
3000 nM	–	O=c1[nH]c(=O)n(Cc2cccc3cccnc23)nc1O [Compound 25a, 6-Hydroxy-2-(quinolin-8-ylmethyl)-1,2,4-triazine-3,5(2H,4H)-dione]
2000 nM	–	O=c1[nH]c(=O)n(Cc2cccc3ccsc23)nc1O [Compound 10q, 2-(Benzo[b]thiophen-7-ylmethyl)-6-hydroxy-1,2,4-triazine-3,5(2H,4H)-dione]
50 nM	–	O=c1[nH]c(=O)n(Cc2cccc3cc(Br)ccc23)nc1O [Compound 25d, 2-((6-Bromonaphthalen-1-yl)methyl)-6-hydroxy-1,2,4-triazine-3,5(2H,4H)-dione]
1000 nM	–	O=c1[nH]c(=O)n(CCN2CCOCC2)nc1O [Compound 10j, 6-Hydroxy-2-(2-morpholinoethyl)-1,2,4-triazine-3,5(2H,4H)-dione]
100 nM	–	O=c1[nH]c(=O)n(CCn2cccc2)nc1O [Compound 10c, 2-(2-(1H-pyrrol-1-yl)ethyl)-6-hydroxy-1,2,4-triazine-3,5(2H,4H)-dione]
5000 nM	–	CN(C)CCn1nc(O)c(=O)[nH]c1=O [Compound 12a, 2-(2-(Dimethylamino)ethyl)-6-hydroxy-1,2,4-triazine-3,5(2H,4H)-dione]
400 nM	–	O=c1[nH]c(=O)n(C[C@@H]2C[C@H]2c2ccccc2)nc1O [Compound 10n, 6-Hydroxy-2-(((1R,2R)-2-phenylcyclopropyl)methyl)-1,2,4-triazine-3,5(2H,4H)-dione]
